Results published in the supplement of paper PMC10307832.

What was measured:
Assay in all cases: relative viability (nuclei count vs DMSO), 5 days (fraction); higher = more cells survive
[1] = compound: Nc1nc(Nc2ccc3c(c2)CC[C@@H](N2CCCC2)CC3)nn1-c1cc2c(nn1)-c1ccccc1CCC2 [Bemcentinib] + CC1(C)CCC(c2ccc(Cl)cc2)=C(CN2CCN(c3ccc(C(=O)NS(=O)(=O)c4ccc(N[C@H](CCN5CCOCC5)CSc5ccccc5)c(S(=O)(=O)C(F)(F)F)c4)cc3)CC2)C1 [Navitoclax] (partner 0.5 µM)
Method in brief: (§1)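 One day after seeding in 1536-well plates, lung cancer cell lines were dosed by pin tool. Dosing was either single-drug or a fixed anchor-drug dose plus five library-drug doses (not always all listed) in √10 steps. After 5 days, nuclei were stained in one fix-and-stain step and counted on 4× images, and relative viability is the nuclei count of treated wells over that of vehicle wells, given as the median of duplicate plates.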

[2] = compound: CNC(=O)c1ccccc1Sc1ccc2c(/C=C/c3ccccn3)n[nH]c2c1 [Axitinib] + CS(=O)(=O)CCNCc1ccc(-c2ccc3ncnc(Nc4ccc(OCc5cccc(F)c5)c(Cl)c4)c3c2)o1 [Lapatinib] (partner 2 µM)
Method in brief: as §1

[3] = compound: CC1=CC=C(C=C1)C(=O)CN2C3=C(CCCC3)SC2=N [Pifithrin_alpha] + CS(=O)(=O)N1CCN(Cc2cc3nc(-c4cccc5[nH]ncc45)nc(N4CCOCC4)c3s2)CC1 [Pictilisib] (partner 1 µM)
Method in brief: as §1

[4] = compound: Nc1nc(Nc2ccc3c(c2)CC[C@@H](N2CCCC2)CC3)nn1-c1cc2c(nn1)-c1ccccc1CCC2 [Bemcentinib] + C[C@]1(O)C[C@@H](c2nc(-c3ccc4ccc(-c5ccccc5)nc4c3)c3c(N)nccn32)C1 [Linsitinib] (partner 1 µM)
Method in brief: as §1

## H3255
[1]; first compound 0.04 µM
  relative viability: 0.397
[1]; first compound 0.1265 µM
  relative viability: 0.581
[1]; first compound 0.4 µM
  relative viability: 0.67
[1]; first compound 1.265 µM
  relative viability: 0.325
[1]; first compound 4 µM
  relative viability: 0.506
[2]; first compound 0.005 µM
  relative viability: 0.272
[2]; first compound 0.01581 µM
  relative viability: 0.241
[2]; first compound 0.05 µM
  relative viability: 0.244
[2]; first compound 0.1581 µM
  relative viability: 0.263
[2]; first compound 0.5 µM
  relative viability: 0.239
[3]; first compound 1 µM
  relative viability: 0.432
[3]; first compound 3.162 µM
  relative viability: 0.612
[3]; first compound 10 µM
  relative viability: 0.497
[3]; first compound 31.62 µM
  relative viability: 0.35
[3]; first compound 100 µM
  relative viability: 0.491
[4]; first compound 0.04 µM
  relative viability: 0.89
[4]; first compound 0.1265 µM
  relative viability: 1.22
[4]; first compound 0.4 µM
  relative viability: 1.04
[4]; first compound 1.265 µM
  relative viability: 1.02
[4]; first compound 4 µM
  relative viability: 0.888

## SK-MES-1
[1]; first compound 0.04 µM
  relative viability: 1.25
[1]; first compound 0.1265 µM
  relative viability: 1.22
[1]; first compound 0.4 µM
  relative viability: 1.36
[1]; first compound 1.265 µM
  relative viability: 1.49
[1]; first compound 4 µM
  relative viability: 1.47
[2]; first compound 0.005 µM
  relative viability: 0.492
[2]; first compound 0.01581 µM
  relative viability: 0.454
[2]; first compound 0.05 µM
  relative viability: 0.53
[2]; first compound 0.1581 µM
  relative viability: 0.446
[2]; first compound 0.5 µM
  relative viability: 0.547
[3]; first compound 1 µM
  relative viability: 0.392
[3]; first compound 3.162 µM
  relative viability: 0.32
[3]; first compound 10 µM
  relative viability: 0.33
[3]; first compound 31.62 µM
  relative viability: 0.293
[3]; first compound 100 µM
  relative viability: 0.237
[4]; first compound 0.04 µM
  relative viability: 1.18
[4]; first compound 0.1265 µM
  relative viability: 1.16
[4]; first compound 0.4 µM
  relative viability: 1.15
[4]; first compound 1.265 µM
  relative viability: 1.32
[4]; first compound 4 µM
  relative viability: 1.12

## COR-L 105
[1]; first compound 0.04 µM
  relative viability: 0.602
[1]; first compound 0.1265 µM
  relative viability: 0.733
[1]; first compound 0.4 µM
  relative viability: 0.794
[1]; first compound 1.265 µM
  relative viability: 0.86
[1]; first compound 4 µM
  relative viability: 0.729
[2]; first compound 0.005 µM
  relative viability: 0.355
[2]; first compound 0.01581 µM
  relative viability: 0.357
[2]; first compound 0.05 µM
  relative viability: 0.328
[2]; first compound 0.1581 µM
  relative viability: 0.381
[2]; first compound 0.5 µM
  relative viability: 0.38
[3]; first compound 1 µM
  relative viability: 0.324
[3]; first compound 3.162 µM
  relative viability: 0.377
[3]; first compound 10 µM
  relative viability: 0.415
[3]; first compound 31.62 µM
  relative viability: 0.33
[3]; first compound 100 µM
  relative viability: 0.458
[4]; first compound 0.04 µM
  relative viability: 0.975
[4]; first compound 0.1265 µM
  relative viability: 0.943
[4]; first compound 0.4 µM
  relative viability: 1.15
[4]; first compound 1.265 µM
  relative viability: 1.02
[4]; first compound 4 µM
  relative viability: 0.871

## NCI-H838
[1]; first compound 0.04 µM
  relative viability: 1.15
[1]; first compound 0.1265 µM
  relative viability: 1.28
[1]; first compound 0.4 µM
  relative viability: 1.36
[1]; first compound 1.265 µM
  relative viability: 1.13
[1]; first compound 4 µM
  relative viability: 1.36
[2]; first compound 0.005 µM
  relative viability: 1.29
[2]; first compound 0.01581 µM
  relative viability: 0.853
[2]; first compound 0.05 µM
  relative viability: 1.11
[2]; first compound 0.1581 µM
  relative viability: 1.01
[2]; first compound 0.5 µM
  relative viability: 1.03
[3]; first compound 1 µM
  relative viability: 0.343
[3]; first compound 3.162 µM
  relative viability: 0.357
[3]; first compound 10 µM
  relative viability: 0.399
[3]; first compound 31.62 µM
  relative viability: 0.293
[3]; first compound 100 µM
  relative viability: 0.314
[4]; first compound 0.04 µM
  relative viability: 0.995
[4]; first compound 0.1265 µM
  relative viability: 1.08
[4]; first compound 0.4 µM
  relative viability: 1.02
[4]; first compound 1.265 µM
  relative viability: 1.08
[4]; first compound 4 µM
  relative viability: 1.05

## EKVX
[1]; first compound 0.04 µM
  relative viability: 0.859
[1]; first compound 0.1265 µM
  relative viability: 1.01
[1]; first compound 0.4 µM
  relative viability: 1.03
[1]; first compound 1.265 µM
  relative viability: 0.804
[1]; first compound 4 µM
  relative viability: 1.1
[2]; first compound 0.005 µM
  relative viability: 0.178
[2]; first compound 0.01581 µM
  relative viability: 0.226
[2]; first compound 0.05 µM
  relative viability: 0.222
[2]; first compound 0.1581 µM
  relative viability: 0.216
[2]; first compound 0.5 µM
  relative viability: 0.183
[3]; first compound 1 µM
  relative viability: 0.328
[3]; first compound 3.162 µM
  relative viability: 0.283
[3]; first compound 10 µM
  relative viability: 0.281
[3]; first compound 31.62 µM
  relative viability: 0.235
[3]; first compound 100 µM
  relative viability: 0.214
[4]; first compound 0.04 µM
  relative viability: 1.06
[4]; first compound 0.1265 µM
  relative viability: 1.19
[4]; first compound 0.4 µM
  relative viability: 1.15
[4]; first compound 1.265 µM
  relative viability: 1.26
[4]; first compound 4 µM
  relative viability: 1.15

## RERF-LC-KJ
[1]; first compound 0.04 µM
  relative viability: 0.815
[1]; first compound 0.1265 µM
  relative viability: 0.805
[1]; first compound 0.4 µM
  relative viability: 0.983
[1]; first compound 1.265 µM
  relative viability: 1.01
[1]; first compound 4 µM
  relative viability: 0.947
[2]; first compound 0.005 µM
  relative viability: 0.865
[2]; first compound 0.01581 µM
  relative viability: 0.829
[2]; first compound 0.05 µM
  relative viability: 0.824
[2]; first compound 0.1581 µM
  relative viability: 0.809
[2]; first compound 0.5 µM
  relative viability: 0.932
[3]; first compound 1 µM
  relative viability: 0.535
[3]; first compound 3.162 µM
  relative viability: 0.397
[3]; first compound 10 µM
  relative viability: 0.503
[3]; first compound 31.62 µM
  relative viability: 0.451
[3]; first compound 100 µM
  relative viability: 0.432
[4]; first compound 0.04 µM
  relative viability: 0.918
[4]; first compound 0.1265 µM
  relative viability: 0.921
[4]; first compound 0.4 µM
  relative viability: 0.886
[4]; first compound 1.265 µM
  relative viability: 0.849
[4]; first compound 4 µM
  relative viability: 1

## LK-2
[1]; first compound 0.04 µM
  relative viability: 0.755
[1]; first compound 0.1265 µM
  relative viability: 0.903
[1]; first compound 0.4 µM
  relative viability: 0.994
[1]; first compound 1.265 µM
  relative viability: 0.904
[1]; first compound 4 µM
  relative viability: 0.904
[2]; first compound 0.005 µM
  relative viability: 0.916
[2]; first compound 0.05 µM
  relative viability: 0.776
[2]; first compound 0.1581 µM
  relative viability: 0.745
[2]; first compound 0.5 µM
  relative viability: 0.625
[3]; first compound 1 µM
  relative viability: 0.631
[3]; first compound 3.162 µM
  relative viability: 0.599
[3]; first compound 10 µM
  relative viability: 0.589
[3]; first compound 100 µM
  relative viability: 0.62
[4]; first compound 0.04 µM
  relative viability: 0.836
[4]; first compound 0.1265 µM
  relative viability: 0.57
[4]; first compound 0.4 µM
  relative viability: 0.677
[4]; first compound 1.265 µM
  relative viability: 0.551
[4]; first compound 4 µM
  relative viability: 1.05
